Patent US10821100B2, “Triazolone compounds as mPGES-1 inhibitors” (Glenmark Pharmaceuticals S.A., priority 2012, dated 2020)

Biological target: T1, Recombinant human mPGES-1 (Homo sapiens, UniProt O14684)
T1 construct: made in house; host or cells: CHO cells (crude microsomal fractions)
T1 sequence (O14684 1-152): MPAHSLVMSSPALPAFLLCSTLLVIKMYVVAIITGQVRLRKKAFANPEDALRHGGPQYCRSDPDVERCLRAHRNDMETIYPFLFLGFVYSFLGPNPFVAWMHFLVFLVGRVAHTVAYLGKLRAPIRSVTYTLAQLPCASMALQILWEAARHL
Test: In-vitro screening of mPGES-1 inhibitors (inhibition of PGE2 formation from PGH2, HTRF detection)
Type: biochemical
Conditions: mPGES-1 enzyme; for inhibition at 1 µM: 1 μM test compound, read-out: Percentage inhibition at 1 μM; for inhibition at 1 µM / inhibition at 10 µM: crude microsomal fractions; for inhibition at 10 µM: 10 μM test compound, read-out: Percentage inhibition at 10 μM; for IC50: class symbols
How it was run: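 Crude CHO-expressed microsomes (40–60 μg/mL protein) preincubated 10 min with compound in 0.1 M potassium phosphate/2 mM EDTA containing 2.5 mM GSH, 0.5% DMSO final. PGH2 (15 μM) reacted 1 min, stopped with stannous chloride. PGE2 quantified by HTRF, IC50 from nonlinear regression of percent inhibition.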

| Compound | inhibition at 1 µM | inhibition at 10 µM | IC50 |
| --- | --- | --- | --- |
| O=C(NCc1ccc(Cl)c(-n2nc(-c3ccc(C#Cc4ccc(C(F)(F)F)cc4Cl)cc3F)[nH]c2=O)c1)C1CC1 [Example-82, N-(4-Chloro-3-(3-(4-((2-chloro-4-(trifluoromethyl)phenyl)ethynyl)-2-fluorophenyl)-5-oxo-4,5-dihydro-1H-1,2,4-triazol-1-yl)benzyl)cyclopropanecarboxamide] | 98.3% | 99% | < 0.05 µM |
| COc1ccc(-n2nc(-c3c(Cl)ccc(CNC(=O)C(C)(C)C)c3F)[nH]c2=O)cc1 [Example-86, N-(4-Chloro-2-fluoro-3-(1-(4-methoxyphenyl)-5-oxo-4,5-dihydro-1H-1,2,4-triazol-3-yl)benzyl)pivalamide] | 79.9% | 96.7% | > 0.1 µM |
| CC(C)(C)C(=O)NCc1ccc(Cl)c(-n2nc(-c3ccc(C(F)(F)F)cc3F)[nH]c2=O)c1F [Example-87, N-(4-Chloro-2-fluoro-3-(3-(2-fluoro-4-(trifluoromethyl)phenyl)-5-oxo-4,5-dihydro-1H-1,2,4-triazol-1-yl)benzyl)pivalamide] | 93.4% | 99.2% | 0.05 to 0.1 µM |
| CC(C)(C)C(=O)NCc1ccc(Cl)c(-n2nc(-c3c(F)cccc3Cl)[nH]c2=O)c1F [Example-88, N-(4-Chloro-3-(3-(2-chloro-6-fluorophenyl)-5-oxo-4,5-dihydro-1H-1,2,4-triazol-1-yl)-2-fluorobenzyl)pivalamide] | 3.34% | 39.2% | – |
| CC(C)(C)C(=O)NCc1ccc(Cl)c(-c2nn(-c3ccc(C#N)cc3)c(=O)[nH]2)c1F [Example-89, N-(4-chloro-3-(1-(4-cyanophenyl)-5-oxo-4,5-dihydro-1H-1,2,4-triazol-3-yl)-2-fluorobenzyl)pivalamide] | 95.3% | 99.1% | < 0.05 µM |
| O=C(NCc1ccc(Cl)c(-n2nc(-c3ccc(C(F)(F)F)cc3F)[nH]c2=O)c1)C1CC1 [Example-92, N-(4-Chloro-3-(3-(2-fluoro-4-(trifluoromethyl)phenyl)-5-oxo-4,5-dihydro-1H-1,2,4-triazol-1-yl)benzyl)cyclopropanecarboxamide] | 76% | 99.4% | > 0.1 µM |
| CC(C)(C)C(=O)NCc1ccc(Cl)c(-c2nn(-c3ccc(C(F)(F)F)nc3)c(=O)[nH]2)c1F [Example-95, N-(4-Chloro-2-fluoro-3-(5-oxo-1-(6-(trifluoromethyl)pyridin-3-yl)-4,5-dihydro-1H-1,2,4-triazol-3-yl)benzyl)pivalamide] | 98.7% | 99% | < 0.05 µM |
| O=c1[nH]c(-c2cc(S(=O)(=O)NC3CC3)ccc2Cl)nn1-c1ccc(C(F)(F)F)cc1 [Example-96, 4-Chloro-N-cyclopropyl-3-(5-oxo-1-(4-(trifluoromethyl)phenyl)-4,5-dihydro-1H-1,2,4-triazol-3-yl)benzenesulfonamide] | 52.2% | 68.7% | – |
| CC(C)(C)C(=O)NCc1ccc(Cl)c(-c2nn(-c3ccc(Cl)cc3)c(=O)[nH]2)c1F [Example-98, N-(4-Chloro-3-(1-(4-chlorophenyl)-5-oxo-4,5-dihydro-1H-1,2,4-triazol-3-yl)-2-fluorobenzyl)pivalamide] | 97.5% | 99.5% | < 0.05 µM |
| O=c1[nH]c(-c2cc(CNS(=O)(=O)C3CC3)ccc2Cl)nn1-c1ccc(C(F)(F)F)cc1 [Example-102, N-(4-Chloro-3-(5-oxo-1-(4-(trifluoromethyl)phenyl)-4,5-dihydro-1H-1,2,4-triazol-3-yl)benzyl)cyclopropanesulfonamide] | 96.5% | 98% | < 0.05 µM |
| O=C(NCc1ccc(Cl)c(-c2nn(-c3ccc(C(F)(F)F)cc3)c(=O)[nH]2)c1)c1ccccc1F [Example-104, N-(4-Chloro-3-(5-oxo-1-(4-(trifluoromethyl)phenyl)-4,5-dihydro-1H-1,2,4-triazol-3-yl)benzyl)-2-fluorobenzamide] | 96.9% | 99.5% | < 0.05 µM |
| Cc1ccc(CNC(=O)C(F)(F)F)c(C)c1-c1nn(-c2ccc(C(F)(F)F)cc2)c(=O)[nH]1 [Example-106, N-(3-(1-(4-(trifluoromethyl)phenyl)-4,5-dihydro-5-oxo-1H-1,2,4-triazol-3-yl)-2,4-dimethylbenzyl)-2,2,2-trifluoroacetamide] | 92% | 96.8% | > 0.1 µM |
| Cc1ccc(CNC(=O)[C@H]2CCCO2)c(C)c1-c1nn(-c2ccc(C(F)(F)F)cc2)c(=O)[nH]1 [Example-107, (R)—N-(2,4-Dimethyl-3-(5-oxo-1-(4-(trifluoromethyl)phenyl)-4,5-dihydro-1H-1,2,4-triazol-3-yl)benzyl)tetrahydrofuran-2-carboxamide] | 56.1% | 90.5% | – |

Other lines, results leading:

| inhibition at 1 µM | inhibition at 10 µM | IC50 | Compound |
| --- | --- | --- | --- |
| 97.5% | 99.9% | < 0.05 µM | CC(C)(C)C(=O)NCc1ccc(Cl)c(-c2nn(-c3ccc(Cl)c(Cl)c3)c(=O)[nH]2)c1F [Example-83, N-(4-Chloro-3-(1-(3,4-dichlorophenyl)-5-oxo-4,5-dihydro-1H-1,2,4-triazol-3-yl)-2-fluorobenzyl)pivalamide] |
| 98.8% | 99.5% | < 0.05 µM | CC(C)(C)C(=O)NCc1ccc(Cl)c(-c2nn(-c3ccc(C(F)(F)F)cc3)c(=O)[nH]2)c1F [Example-84, N-(4-Chloro-2-fluoro-3-(5-oxo-1-(4-(trifluoromethyl)phenyl)-4,5-dihydro-1H-1,2,4-triazol-3-yl)benzyl)pivalamide] |
| 22.6% | 69.3% | – | CC(C)(C)C(=O)NCc1ccc(Cl)c(-c2nn(-c3ccc(F)cc3F)c(=O)[nH]2)c1F [Example-85, N-(4-Chloro-j-(1-(2,4-difluorophenyl)-5-oxo-4,5-dihydro-1H-1,2,4-triazol-3-yl)-2-fluorobenzyl)pivalamide] |
| 81.7% | 97.2% | > 0.1 µM | CC(C)(C)C(=O)NCc1ccc(Cl)c(-n2nc(-c3ccc(Cl)cc3F)[nH]c2=O)c1F [Example-90, N-(4-Chloro-3-(3-(4-chloro-2-fluorophenyl)-5-oxo-4,5-dihydro-1H-1,2,4-triazol-1-yl)-2-fluorobenzyl)pivalamide] |
| 66.2% | 94.3% | – | O=C(NCc1ccc(Cl)c(-n2nc(-c3ccc(Cl)cc3F)[nH]c2=O)c1)C1CC1 [Example-91, N-(4-Chloro-3-(3-(4-chloro-2-fluorophenyl)-5-oxo-4,5-dihydro-1H-1,2,4-triazol-1-yl)benzyl)cyclopropanecarboxamide] |
| 96.8% | 99.6% | < 0.05 µM | CC(C)(C)C(=O)NCc1ccc(Cl)c(-n2nc(-c3ccc(C(F)(F)F)cc3)[nH]c2=O)c1F [Example-93, N-(4-Chloro-2-fluoro-3-(5-oxo-3-(4-(trifluoromethyl)phenyl)-4,5-dihydro-1H-1,2,4-triazol-1-yl)benzyl)pivalamide] |
| 87% | 100% | > 0.1 µM | CC(C)(C)C(=O)NCc1ccc(Cl)c(-c2nn(-c3ccc(C(F)(F)F)cn3)c(=O)[nH]2)c1F [Example-94, N-(4-Chloro-2-fluoro-3-(5-oxo-1-(5-(trifluoromethyl)pyridin-2-yl)-4,5-dihydro-1H-1,2,4-triazol-3-yl)benzyl)pivalamide] |
| 20.2% | 6.88% | – | O=c1[nH]c(-c2cc(S(=O)(=O)NC3CC3)ccc2Cl)nn1-c1ccc(Cl)cc1 [Example-97, 4-Chloro-3-(1-(4-chlorophenyl)-5-oxo-4,5-dihydro-1H-1,2,4-triazol-3-yl)-N-cyclopropylbenzenesulfonamide] |
| 95.3% | 98.5% | < 0.05 µM | O=C(NCc1ccc(Cl)c(-c2nn(-c3ccc(C(F)(F)F)cc3)c(=O)[nH]2)c1)C(F)(F)F [Example-99, N-(4-Chloro-3-(5-oxo-1-(4-(trifluoromethyl)phenyl)-4,5-dihydro-1H-1,2,4-triazol-3-yl)benzyl)-2,2,2-trifluoroacetamide] |
| 100% | 98.6% | < 0.05 µM | CC(C)(C)C(=O)NCc1ccc(Cl)c(-c2nn(-c3ccc(C(F)(F)F)cc3)c(=O)[nH]2)c1 [Example-100, N-(4-Chloro-3-(5-oxo-1-(4-(trifluoromethyl)phenyl)-4,5-dihydro-1H-1,2,4-triazol-3-yl)benzyl)pivalamide] |
| 95% | 98.2% | < 0.05 µM | O=C(NCc1ccc(Cl)c(-c2nn(-c3ccc(C(F)(F)F)cc3)c(=O)[nH]2)c1)[C@H]1CCCO1 [Example-101, (R)—N-(4-Chloro-3-(5-oxo-1-(4-(trifluoromethyl)phenyl)-4,5-dihydro-1H-1,2,4-triazol-3-yl)benzyl)tetrahydrofuran-2-carboxamide] |
| 19.9% | 51.1% | – | CC(C)(C)C(=O)NCc1ccc(Cl)c(-c2nn(C3CCCCC3)c(=O)[nH]2)c1F [Example-103, N-(4-Chloro-3-(1-cyclohexyl-5-oxo-4,5-dihydro-1H-1,2,4-triazol-3-yl)-2-fluorobenzyl)pivalamide] |
| 73.9% | 96% | > 0.1 µM | O=C(NCc1ccc(Cl)c(-c2nn(-c3ccc(C(F)(F)F)cc3)c(=O)[nH]2)c1)c1ccno1 [Example-105, N-(4-Chloro-3-(5-oxo-1-(4-(trifluoromethyl)phenyl)-4,5-dihydro-H-1,2,4-triazol-3-yl)benzyl)isoxazole-5-carboxamide] |
